Assay results as given in patent US4591637A, “Open chain-morpholino adriamycins” (priority 1985, dated 1986).
Where two headings read alike, the source gives them in different places.

What was measured:
[1] = tested on: DNA synthesis in L-1210 Cells; assay: inhibition of DNA synthesis in L1210 cells in vitro; assay type: cell-based; conditions: Mus musculus
Experimental: (§1) An in vitro test measured inhibition of DNA and RNA synthesis in L-1210 Cells in the method described by Tong, G., et al, J Med Chem (1976) 19:395. ED50 levels (the dose at which 50% inhibition occurs) were computed and ED50 ratios for DNA/RNA determined.
(§2) The compounds prepared in Examples 1-5 were tested for in vitro DNA and RNA synthesis inhibition activity and in vivo for ability to increase survival time in mice injected with P-388 leukemia cells as described above. The relative solubility in octanol and phosphate buffer, expressed as log10 p, was also determined, as well as the ΔTm of isolated helical DNA synthesized in the in vitro test.

[2] = tested on: RNA synthesis in L-1210 Cells; assay: inhibition of RNA synthesis in L1210 cells in vitro; assay type: cell-based; conditions: Mus musculus
Experimental: as §1, §2

isolated helical DNA = assay: ΔTm of isolated helical DNA; assay type: binding
Experimental: as §2

physchem = assay type: physicochemical; conditions: octanol-phosphate buffer, pH 7.4
Experimental: as §2

P-388 leukemia = assay: survival time of mice injected with P-388 leukemia cells; assay type: in vivo; conditions: mouse P388, qd 1, 10 mg/kg; T/C = treated survival time/untreated survival time×100
Experimental: Survival times and % T/C (treated survival time/untreated survival time×100) were determined, as well as dosage levels required.
The relative solubility in octanol and phosphate buffer, expressed as log10 p, was also determined, as well as the ΔTm of isolated helical DNA synthesized in the in vitro test.

[3] = L1210 cells, DNA synthesis, ED50 = dose at which 50% inhibition occurs, read-out: L1210 cells inhib of synth, ED50, DNA
[4] = L1210 cells, RNA synthesis, ED50 = dose at which 50% inhibition occurs, read-out: L1210 cells inhib of synth, ED50, RNA
[5] = L1210, read-out: L1210 cells inhib of synth, ED50, DNA
[6] = L1210, read-out: L1210 cells inhib of synth, ED50, RNA
[7] = read-out: log10 p, octanol-phosphate buffer at pH 7.4

SMILES	IC50 [1, 3]	IC50 [2, 4]	ΔTm of isolated helical DNA (isolated helical DNA)	logD (physchem)	Mouse P388 qd 1, % T/C (mg/kg) (P-388 leukemia)	IC50 [1, 5]	IC50 [2, 6]	logD (physchem; [7])
COc1cccc2c1C(=O)c1c(O)c3c(c(O)c1C2=O)C[C@@](O)(C(=O)CO)C[C@@H]3O[C@H]1C[C@H](N)[C@H](O)[C@H](C)O1 [Doxorubicin, doxorubicin, reference compound]	1600 nM	580 nM	12.8 °C	0.07	258 % T/C			
COCC(C#N)N[C@H]1C[C@H](O[C@H]2C[C@](O)(C(=O)CO)Cc3c(O)c4c(c(O)c32)C(=O)c2c(OC)cccc2C4=O)O[C@@H](C)[C@H]1O (stereo partly drawn) [N--(1-cyano-2-methoxy-ethyl)doxorubicin, N-(1-cyano-2-methoxyethyl)doxorubicin]			12.5 °C			800 nM	400 nM	
COCC(C#N)N[C@H]1C[C@H](O[C@H]2C[C@](O)(C(C)=O)Cc3c(O)c4c(c(O)c32)C(=O)c2c(OC)cccc2C4=O)O[C@@H](C)[C@H]1O (stereo partly drawn) [N--(1-cyano-2-methoxy-ethyl)daunorubicin, N-(1-cyano-2-methoxyethyl)Dau]						510 nM	510 nM	2.64
COc1cccc2c1C(=O)c1c(O)c3c(c(O)c1C2=O)C[C@@](O)(C(C)=O)C[C@@H]3O[C@H]1C[C@H](N)[C@H](O)[C@H](C)O1 [Daunorubicin, daunorubicin, reference compound]	660 nM	330 nM	10.5 °C					0.66
COc1cccc2c1C(=O)c1c(O)c3c(c(O)c1C2=O)C[C@@](O)(C(=O)CO)C[C@@H]3O[C@H]1C[C@H](NCC#N)[C@H](O)[C@H](C)O1 [N--(cyanomethyl)-doxorubicin]			13.9 °C			1200 nM	290 nM	
COc1cccc2c1C(=O)c1c(O)c3c(c(O)c1C2=O)C[C@@](O)(C(C)=O)C[C@@H]3O[C@H]1C[C@H](NCC#N)[C@H](O)[C@H](C)O1 [N--(cyanomethyl)-daunorubicin, N-(cyanomethyl)daunorubicin]			11.7 °C			1750 nM	820 nM	
